The nature of series [1]: AUC in CD-1 mouse at 10 mg/kg, po. The settings on record: in vivo. In kind it is ADME, organism-based.
The target in series [2] is Lysine-specific demethylase 6B (Homo sapiens, UniProt O15054). Description: Inhibition of KDM6B (unknown origin).
In series [3] the target is Voltage-gated inwardly rectifying potassium channel KCNH2 (Homo sapiens, UniProt Q12809). Put plainly: Inhibition of human ERG.
Series [4] in a line: Clearance in CD-1 mouse at 5 mg/kg, iv. The class given is ADME, organism-based. The settings on record: in vivo.
Series [5] in a line: Protein binding in mouse plasma. The class given is ADME, cell-free. To be noted: read-out: PPB (converted).
Series [6] is described as follows: Volume of distribution in CD-1 mouse at 5 mg/kg, iv. The class given is ADME, organism-based. The settings on record: in vivo.
Series [7] addresses T1, Lysine-specific demethylase 4D (Homo sapiens, UniProt Q6B0I6).
T1 sequence (Q6B0I6 whole entry): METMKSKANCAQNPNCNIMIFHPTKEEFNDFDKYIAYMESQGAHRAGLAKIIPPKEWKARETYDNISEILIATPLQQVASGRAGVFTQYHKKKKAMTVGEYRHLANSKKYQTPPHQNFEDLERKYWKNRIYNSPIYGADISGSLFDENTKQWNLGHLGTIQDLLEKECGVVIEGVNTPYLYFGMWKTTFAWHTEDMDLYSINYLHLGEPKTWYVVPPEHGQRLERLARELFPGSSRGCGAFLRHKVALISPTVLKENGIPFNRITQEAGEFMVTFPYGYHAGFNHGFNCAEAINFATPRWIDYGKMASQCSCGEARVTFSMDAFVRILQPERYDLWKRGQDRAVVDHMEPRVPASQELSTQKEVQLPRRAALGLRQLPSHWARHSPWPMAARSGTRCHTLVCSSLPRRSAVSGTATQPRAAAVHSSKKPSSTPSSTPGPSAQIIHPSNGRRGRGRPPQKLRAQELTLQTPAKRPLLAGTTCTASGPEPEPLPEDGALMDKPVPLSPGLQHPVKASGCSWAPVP
Put plainly: Inhibition of KDM4D (unknown origin).

The target in series [8] is Lysine-specific demethylase 5A (Homo sapiens, UniProt P29375). Put plainly: Inhibition of KDM5A (unknown origin) preincubated with enzyme.
Chain of Lysine-specific demethylase 5A (P29375 whole entry): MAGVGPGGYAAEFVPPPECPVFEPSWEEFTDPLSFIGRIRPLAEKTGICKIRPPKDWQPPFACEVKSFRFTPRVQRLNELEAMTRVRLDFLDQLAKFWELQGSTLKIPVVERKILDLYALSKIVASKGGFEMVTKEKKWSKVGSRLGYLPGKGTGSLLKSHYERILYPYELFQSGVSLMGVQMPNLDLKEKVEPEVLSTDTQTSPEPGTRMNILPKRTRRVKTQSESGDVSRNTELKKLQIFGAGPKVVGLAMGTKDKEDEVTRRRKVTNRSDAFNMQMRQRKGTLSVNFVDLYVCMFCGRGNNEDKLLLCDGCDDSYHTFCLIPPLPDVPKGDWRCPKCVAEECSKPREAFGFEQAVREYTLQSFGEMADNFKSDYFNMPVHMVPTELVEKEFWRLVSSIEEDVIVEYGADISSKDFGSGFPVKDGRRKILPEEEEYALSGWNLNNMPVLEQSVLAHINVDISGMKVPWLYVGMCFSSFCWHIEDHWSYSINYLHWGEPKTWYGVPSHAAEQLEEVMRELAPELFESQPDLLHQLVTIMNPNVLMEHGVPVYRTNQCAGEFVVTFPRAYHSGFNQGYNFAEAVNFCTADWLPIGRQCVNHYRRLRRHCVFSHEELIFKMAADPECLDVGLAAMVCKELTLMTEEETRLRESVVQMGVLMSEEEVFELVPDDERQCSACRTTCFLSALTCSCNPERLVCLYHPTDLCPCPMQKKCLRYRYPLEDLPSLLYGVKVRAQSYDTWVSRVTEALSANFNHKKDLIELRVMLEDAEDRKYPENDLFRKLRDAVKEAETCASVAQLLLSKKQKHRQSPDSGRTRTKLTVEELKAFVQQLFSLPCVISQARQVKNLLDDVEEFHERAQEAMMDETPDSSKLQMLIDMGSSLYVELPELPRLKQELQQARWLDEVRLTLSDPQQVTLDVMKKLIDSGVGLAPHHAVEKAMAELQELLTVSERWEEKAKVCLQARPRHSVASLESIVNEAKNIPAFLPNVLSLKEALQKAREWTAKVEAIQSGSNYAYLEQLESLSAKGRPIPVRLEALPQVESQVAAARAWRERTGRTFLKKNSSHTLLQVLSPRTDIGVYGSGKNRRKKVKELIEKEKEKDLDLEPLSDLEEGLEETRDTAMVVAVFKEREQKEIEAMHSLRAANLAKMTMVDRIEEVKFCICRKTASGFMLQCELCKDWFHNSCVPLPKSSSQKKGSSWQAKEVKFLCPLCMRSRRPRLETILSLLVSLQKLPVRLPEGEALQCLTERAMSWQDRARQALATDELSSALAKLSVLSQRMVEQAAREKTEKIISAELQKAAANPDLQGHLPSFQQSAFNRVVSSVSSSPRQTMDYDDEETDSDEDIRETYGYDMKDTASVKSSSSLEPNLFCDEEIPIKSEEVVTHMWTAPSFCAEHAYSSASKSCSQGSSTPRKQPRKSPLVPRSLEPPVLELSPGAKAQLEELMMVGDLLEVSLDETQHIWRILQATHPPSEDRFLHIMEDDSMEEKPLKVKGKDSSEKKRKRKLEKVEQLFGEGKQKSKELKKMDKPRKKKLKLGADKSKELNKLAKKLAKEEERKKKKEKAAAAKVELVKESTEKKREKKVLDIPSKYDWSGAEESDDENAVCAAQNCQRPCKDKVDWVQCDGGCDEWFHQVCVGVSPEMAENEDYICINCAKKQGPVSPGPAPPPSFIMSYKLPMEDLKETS
The target of series [9] is T2, Lysine-specific demethylase 4A (Homo sapiens, UniProt O75164).
T2 sequence (O75164 whole entry): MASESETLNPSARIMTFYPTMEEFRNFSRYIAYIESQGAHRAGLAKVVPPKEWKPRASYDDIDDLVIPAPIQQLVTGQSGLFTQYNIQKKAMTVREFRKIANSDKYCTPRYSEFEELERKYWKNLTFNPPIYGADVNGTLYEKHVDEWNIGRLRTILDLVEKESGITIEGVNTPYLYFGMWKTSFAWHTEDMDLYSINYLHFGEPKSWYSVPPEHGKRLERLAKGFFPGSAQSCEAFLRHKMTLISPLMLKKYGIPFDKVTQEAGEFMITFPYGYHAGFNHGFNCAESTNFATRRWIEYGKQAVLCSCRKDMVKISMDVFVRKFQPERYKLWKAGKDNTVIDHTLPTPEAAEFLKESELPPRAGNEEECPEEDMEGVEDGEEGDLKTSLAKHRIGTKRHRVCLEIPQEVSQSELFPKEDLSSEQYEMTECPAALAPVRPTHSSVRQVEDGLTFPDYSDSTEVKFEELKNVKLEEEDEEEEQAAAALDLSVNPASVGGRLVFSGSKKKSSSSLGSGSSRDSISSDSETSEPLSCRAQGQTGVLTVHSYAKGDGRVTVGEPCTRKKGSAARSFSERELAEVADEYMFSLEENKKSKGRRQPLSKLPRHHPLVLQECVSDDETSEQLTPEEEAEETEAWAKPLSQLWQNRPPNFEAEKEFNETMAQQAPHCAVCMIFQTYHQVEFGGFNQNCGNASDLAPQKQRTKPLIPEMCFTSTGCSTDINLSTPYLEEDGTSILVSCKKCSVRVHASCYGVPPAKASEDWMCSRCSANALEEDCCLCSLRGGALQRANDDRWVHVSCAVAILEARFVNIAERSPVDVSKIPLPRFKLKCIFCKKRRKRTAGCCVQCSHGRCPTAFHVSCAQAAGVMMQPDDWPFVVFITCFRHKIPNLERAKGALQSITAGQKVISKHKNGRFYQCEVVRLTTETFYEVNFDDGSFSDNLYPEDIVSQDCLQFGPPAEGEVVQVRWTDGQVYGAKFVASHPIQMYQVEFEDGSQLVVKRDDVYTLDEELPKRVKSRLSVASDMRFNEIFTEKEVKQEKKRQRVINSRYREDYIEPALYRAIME
Description: Inhibition of KDM4A (unknown origin).

The target in series [10] is Lysine-specific histone demethylase 1A (Homo sapiens, UniProt O60341). Put plainly: Inhibition of KDM1A (unknown origin).
The target in series [11] is T3, Lysine-specific demethylase 4C (Homo sapiens, UniProt Q9H3R0).
T3 sequence (Q9H3R0 whole entry): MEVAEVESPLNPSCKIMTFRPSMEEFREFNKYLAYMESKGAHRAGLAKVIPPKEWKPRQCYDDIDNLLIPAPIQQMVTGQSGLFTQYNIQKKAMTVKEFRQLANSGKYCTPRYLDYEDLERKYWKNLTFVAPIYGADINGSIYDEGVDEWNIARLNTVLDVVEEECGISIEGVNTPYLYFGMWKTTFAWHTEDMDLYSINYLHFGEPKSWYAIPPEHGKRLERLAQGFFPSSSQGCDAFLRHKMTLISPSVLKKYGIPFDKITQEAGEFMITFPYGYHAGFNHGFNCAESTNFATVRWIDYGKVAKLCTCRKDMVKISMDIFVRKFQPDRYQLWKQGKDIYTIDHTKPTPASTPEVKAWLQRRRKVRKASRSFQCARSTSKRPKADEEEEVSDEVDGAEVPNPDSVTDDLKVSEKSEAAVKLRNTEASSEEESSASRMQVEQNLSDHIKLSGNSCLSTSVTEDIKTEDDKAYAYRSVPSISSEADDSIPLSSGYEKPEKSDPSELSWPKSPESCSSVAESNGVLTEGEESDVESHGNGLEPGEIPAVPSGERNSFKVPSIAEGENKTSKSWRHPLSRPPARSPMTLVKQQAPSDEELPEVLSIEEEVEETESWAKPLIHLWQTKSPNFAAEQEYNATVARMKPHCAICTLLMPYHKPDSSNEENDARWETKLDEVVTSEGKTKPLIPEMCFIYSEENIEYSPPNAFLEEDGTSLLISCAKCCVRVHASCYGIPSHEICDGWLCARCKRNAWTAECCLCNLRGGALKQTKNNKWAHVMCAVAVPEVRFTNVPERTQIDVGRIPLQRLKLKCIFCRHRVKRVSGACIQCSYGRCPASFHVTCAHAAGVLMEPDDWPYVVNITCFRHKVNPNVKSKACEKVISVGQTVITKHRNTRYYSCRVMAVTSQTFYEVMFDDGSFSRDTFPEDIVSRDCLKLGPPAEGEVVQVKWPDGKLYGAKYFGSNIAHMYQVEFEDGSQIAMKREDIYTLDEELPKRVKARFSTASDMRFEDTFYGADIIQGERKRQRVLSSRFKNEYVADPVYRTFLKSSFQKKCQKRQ
Put plainly: Inhibition of KDM4C (unknown origin) preincubated with enzyme.

These results are taken from ChEMBL document CHEMBL4219204, “Structure-based design and discovery of potent and selective KDM5 inhibitors” (Bioorg Med Chem Lett, 2018).

As usually defined, the AUC is the area under the concentration-time curve, a measure of exposure. A higher AUC goes with more exposure. As a reminder, the pIC50 is −log10 of the IC50, conventionally taken in molar units. The term clearance denotes the volume of plasma or blood freed of the substance per unit of time. A low value points to inefficient removal. What is called Vd is a proportionality between amount in the body and measured concentration, not a real space. Low values mean confinement near the circulation, high ones extensive tissue distribution.

pIC50: −log10 of the molar value.

Chain of Lysine-specific demethylase 6B (O15054 whole entry): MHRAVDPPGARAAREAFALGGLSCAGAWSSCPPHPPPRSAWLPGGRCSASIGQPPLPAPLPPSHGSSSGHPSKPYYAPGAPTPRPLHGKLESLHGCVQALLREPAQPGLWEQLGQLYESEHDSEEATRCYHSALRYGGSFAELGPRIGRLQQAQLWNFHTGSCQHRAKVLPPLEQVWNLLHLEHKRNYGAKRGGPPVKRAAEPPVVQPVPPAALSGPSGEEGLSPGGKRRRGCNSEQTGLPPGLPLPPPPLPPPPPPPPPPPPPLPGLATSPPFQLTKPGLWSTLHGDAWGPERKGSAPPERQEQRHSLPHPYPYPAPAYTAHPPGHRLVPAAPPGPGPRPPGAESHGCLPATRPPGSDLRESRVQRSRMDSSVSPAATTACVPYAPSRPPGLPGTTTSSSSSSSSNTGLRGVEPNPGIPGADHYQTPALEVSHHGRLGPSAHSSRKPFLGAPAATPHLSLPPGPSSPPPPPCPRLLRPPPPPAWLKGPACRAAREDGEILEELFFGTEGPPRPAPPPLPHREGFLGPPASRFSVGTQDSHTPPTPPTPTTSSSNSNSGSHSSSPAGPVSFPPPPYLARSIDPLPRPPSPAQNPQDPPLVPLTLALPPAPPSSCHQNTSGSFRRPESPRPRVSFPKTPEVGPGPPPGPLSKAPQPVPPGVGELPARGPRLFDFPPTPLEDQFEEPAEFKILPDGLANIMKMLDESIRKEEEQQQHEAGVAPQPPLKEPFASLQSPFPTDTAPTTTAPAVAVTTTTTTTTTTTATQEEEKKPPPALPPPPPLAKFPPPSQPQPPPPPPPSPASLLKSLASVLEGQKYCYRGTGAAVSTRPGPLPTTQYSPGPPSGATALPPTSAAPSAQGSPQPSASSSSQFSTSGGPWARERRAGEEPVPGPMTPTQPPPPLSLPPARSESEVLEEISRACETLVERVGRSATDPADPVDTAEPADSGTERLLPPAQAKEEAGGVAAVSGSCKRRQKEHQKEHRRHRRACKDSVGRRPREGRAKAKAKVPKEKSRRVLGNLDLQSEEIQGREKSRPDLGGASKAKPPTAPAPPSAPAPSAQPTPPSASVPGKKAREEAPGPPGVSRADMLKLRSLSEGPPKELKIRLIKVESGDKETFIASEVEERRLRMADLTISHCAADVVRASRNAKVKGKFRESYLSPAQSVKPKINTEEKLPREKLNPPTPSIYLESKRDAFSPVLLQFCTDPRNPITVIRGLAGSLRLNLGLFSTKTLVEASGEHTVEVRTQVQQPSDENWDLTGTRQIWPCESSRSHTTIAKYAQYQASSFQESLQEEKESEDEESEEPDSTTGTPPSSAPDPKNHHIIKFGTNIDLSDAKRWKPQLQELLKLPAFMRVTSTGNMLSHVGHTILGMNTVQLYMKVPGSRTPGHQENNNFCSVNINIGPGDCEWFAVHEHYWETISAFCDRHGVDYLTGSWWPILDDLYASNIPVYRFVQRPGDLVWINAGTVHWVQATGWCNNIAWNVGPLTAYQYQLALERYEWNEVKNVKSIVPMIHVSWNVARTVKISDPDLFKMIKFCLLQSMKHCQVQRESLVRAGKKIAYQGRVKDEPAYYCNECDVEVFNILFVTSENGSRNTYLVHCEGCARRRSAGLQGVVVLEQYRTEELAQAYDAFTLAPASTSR
Chain of Voltage-gated inwardly rectifying potassium channel KCNH2 (Q12809 whole entry): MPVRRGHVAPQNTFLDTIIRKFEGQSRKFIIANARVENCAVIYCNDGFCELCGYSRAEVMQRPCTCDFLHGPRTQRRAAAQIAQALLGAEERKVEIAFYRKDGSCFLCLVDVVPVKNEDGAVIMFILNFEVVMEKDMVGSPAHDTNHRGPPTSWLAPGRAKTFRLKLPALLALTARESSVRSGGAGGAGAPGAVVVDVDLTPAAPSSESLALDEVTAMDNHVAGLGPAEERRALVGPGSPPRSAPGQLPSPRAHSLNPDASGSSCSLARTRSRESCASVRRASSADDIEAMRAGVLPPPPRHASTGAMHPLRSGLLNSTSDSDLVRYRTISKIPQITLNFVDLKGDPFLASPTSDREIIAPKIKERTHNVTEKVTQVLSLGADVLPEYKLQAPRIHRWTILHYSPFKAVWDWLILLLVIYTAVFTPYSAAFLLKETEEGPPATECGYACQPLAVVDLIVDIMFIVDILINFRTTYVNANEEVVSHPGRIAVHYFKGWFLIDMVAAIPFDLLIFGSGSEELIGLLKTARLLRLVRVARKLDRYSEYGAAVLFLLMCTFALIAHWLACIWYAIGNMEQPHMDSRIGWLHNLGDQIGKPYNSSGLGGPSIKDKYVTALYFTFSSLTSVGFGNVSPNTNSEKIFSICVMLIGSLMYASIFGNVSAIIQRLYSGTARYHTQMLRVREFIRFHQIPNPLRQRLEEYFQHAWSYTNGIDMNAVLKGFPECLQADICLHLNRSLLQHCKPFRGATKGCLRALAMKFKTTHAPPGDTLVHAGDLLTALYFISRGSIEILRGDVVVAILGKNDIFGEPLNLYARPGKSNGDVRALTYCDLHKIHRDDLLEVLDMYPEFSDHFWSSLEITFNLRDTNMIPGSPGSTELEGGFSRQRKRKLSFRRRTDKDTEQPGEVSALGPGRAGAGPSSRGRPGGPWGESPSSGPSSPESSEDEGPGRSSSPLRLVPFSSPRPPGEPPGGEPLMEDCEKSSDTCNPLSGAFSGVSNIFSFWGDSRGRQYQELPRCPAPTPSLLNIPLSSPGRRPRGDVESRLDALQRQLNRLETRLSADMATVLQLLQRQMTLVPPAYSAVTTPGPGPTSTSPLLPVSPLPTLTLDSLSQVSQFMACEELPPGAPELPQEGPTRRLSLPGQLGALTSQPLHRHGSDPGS

In [1], `Cc1cc(Cl)ccc1COc1ccnn1-c1cc(C(=O)O)ccn1` showed an AUC of 44000 ng·h/mL. Also, the pIC50 in series [2] is 5.64; in series [7], 6.96; in series [8] it was 7.89; in [9], 7.00; in series [10], below 4.40; in series [11], 7.39 to 7.46. Moreover, in [3], the “inhibition (INH)” value is “Not Active”. This compound also registered a clearance in [4] of 2.1 mL/min/kg. Besides, the fraction unbound in series [5] is 0.009. The same compound displayed a distribution volume (Vd) in series [6] of 0.16 L/kg.
